Measurements from article PMC5820046 (Internal Medicine, 2017).
Read-outs that look alike come from different tables or passages of the source.

Key:
patients [1] = details: phase III clinical trials; cited from earlier work
patient [2] = details: present case (case 37)
patients [3] = details: cited from earlier work
plasma protein [4] = assay: Plasma protein binding of DAP, present case; assay type: in vitro ADME, human; details: patient plasma, DAP 7 mg/kg every 48 hours
[5] = present case, DAP 7 mg/kg every 48 hours, chronic renal failure, HPLC
plasma protein [6] = details: healthy volunteers, escalating dose levels; cited from earlier work
T cells = details: present case
[7] = healthy volunteers; DAP 6 mg/kg every 24 hours; cited from earlier work
patient [8] = details: present case, rapid type
patient [9] = details: present case
patients [10] = details: FDA adverse event reporting system, 2004 to 2010; cited from earlier work

In the case of `CCCCCCCCCC(=O)N[C@@H](Cc1c[nH]c2ccccc12)C(=O)N[C@H](CC(N)=O)C(=O)N[C@@H](CC(=O)O)C(=O)N[C@@H]1C(=O)NCC(=O)N[C@@H](CCCN)C(=O)N[C@@H](CC(=O)O)C(=O)N[C@H](C)C(=O)N[C@@H](CC(=O)O)C(=O)NCC(=O)N[C@H](CO)C(=O)N[C@@H]([C@H](C)CC(=O)O)C(=O)N[C@@H](CC(=O)c2ccccc2N)C(=O)O[C@@H]1C` [DAP, Daptomycin], the “myopathic symptoms, patients” value (patients [1]) is given as 0.2%, the “serum creatinine kinase (CK) elevation, patients” value (patients [1]) is given as 2.8% and the Imaging findings (patient [2]; DAP 7 mg/kg) is given as “Bilateral, peripheral nodules and patchy consolidations”. The Prognosis (patient [2]; initial treatment withdrawal) was “Recover”, the “DAP Cmin associated with an increased probability of CK elevation” value (patients [3]) was 24300 ng/mL and the “percentage of plasma protein-bound DAP” value (plasma protein [4]) was 87.8%. For the same compound, the “median plasma DAP Cmin” value [5] was 27400 ng/mL, the “percentage of DAP plasma protein binding” value (plasma protein [6]) was “consistent across dose levels” and the “drug lymphocyte stimulation test (DLST) reaction” value (T cells) was “negative”. The “median plasma DAP Cmin” value [7] was 9130 ng/mL, the intracutaneous test reaction (patient [8]) was “positive” and the intracutaneous test reaction (patient [8]; listed as daptomycin) was “positivity”. For the same compound, the “Skin tests, prick-puncture administration and patch tests, reaction” value (patient [9]) was “negative” and the “patients who developed DAP-associated EP” value (patients [10]) was 63 patients.
